Source: article PMC10108353, “Design and Pharmacological Characterization of α4β1 Integrin Cyclopeptide Agonists: Computational Investigation of Ligand Determinants for Agonism versus Antagonism” (Journal of Medicinal Chemistry, 2023)
Starred links: 1 amine or outer side, 2 acyl side, 3 side chain; linkers in the order of their positions; H or OH if unused. Positions of bridges follow the written chain, without caps; N, C: chain ends. Non-standard residues stand in square brackets, D forms with d. Residues, ends and D or L forms follow the SMILES beside them. Groups on a side chain read outwards from the residue. *: point of attachment. Phe(4-NH2) = Nc1ccc(C[C@H](N)C(=O)O)cc1; X1 = O=C(Cc1ccc(N[*:1])cc1)[*:2]; NH(2-Me-phenyl) = Cc1ccccc1N*; CO = O=C([*:1])[*:2]

Columns and labels:
α4β1 integrin [1] = molecular target: T1, α4β1 integrin (Homo sapiens, UniProt P05556+P13612); experiment: Jurkat E6.1 cell adhesion to VCAM-1; conditions: agonist = adhesion index >1, antagonist = adhesion index <1
T1 sequence (P05556 21-798, one chain of several): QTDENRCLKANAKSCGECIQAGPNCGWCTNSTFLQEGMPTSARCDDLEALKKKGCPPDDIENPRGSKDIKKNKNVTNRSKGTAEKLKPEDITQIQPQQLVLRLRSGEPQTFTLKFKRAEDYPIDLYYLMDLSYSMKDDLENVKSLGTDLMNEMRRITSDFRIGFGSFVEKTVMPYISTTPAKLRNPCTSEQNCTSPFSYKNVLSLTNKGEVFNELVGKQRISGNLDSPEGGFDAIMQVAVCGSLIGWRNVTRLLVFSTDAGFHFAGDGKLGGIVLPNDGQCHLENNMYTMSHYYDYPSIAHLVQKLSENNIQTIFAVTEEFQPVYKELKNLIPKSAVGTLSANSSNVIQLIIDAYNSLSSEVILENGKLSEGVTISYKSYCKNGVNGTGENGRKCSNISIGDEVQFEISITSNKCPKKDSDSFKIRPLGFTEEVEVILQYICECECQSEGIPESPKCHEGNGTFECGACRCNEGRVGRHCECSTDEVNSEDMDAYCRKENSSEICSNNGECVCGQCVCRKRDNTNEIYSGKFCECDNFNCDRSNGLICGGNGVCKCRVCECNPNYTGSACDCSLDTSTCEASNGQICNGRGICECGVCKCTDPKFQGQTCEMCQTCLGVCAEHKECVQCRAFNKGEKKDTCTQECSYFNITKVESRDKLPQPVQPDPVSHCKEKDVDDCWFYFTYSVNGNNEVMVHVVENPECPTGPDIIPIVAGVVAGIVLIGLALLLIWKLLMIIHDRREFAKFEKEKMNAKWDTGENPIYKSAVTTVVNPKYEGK
Procedure: (§1) Cells were seeded in 96-well plates coated with the specific natural human recombinant ligands (Table 1) and allowed to adhere in the presence of increasing concentrations (10^–10 to 10^–4 M) of the synthesized CPPs before the determination of the number of adherent cells (as described in Experimental Section).
(§2) For adhesion assays on Jurkat E6.1, RPMI8866, or HL60 cells, black 96-well plates were coated overnight at 4 °C with VCAM-1 or ICAM-1 or MAdCAM-1 (5 μg/mL) or Fg (10 μg/mL). The cells were counted, stained with CellTracker green CMFDA (12.5 μM, 30 min at 37 °C, Life Technologies), and after three washes, were preincubated with increasing concentrations of new CPP (10^–10 to 10^–4 M) or with the vehicle (methanol) for 30 min at 37 °C. Then cells were plated (500 000/well) on coated wells and incubated for 30 min at 37 °C. After three washes, adhered cells were lysed with 0.5% Triton X-100 in PBS (30 min at 4 °C) and fluorescence was measured (Ex485 nm/Em535 nm) in an EnSpire Multimode Plate Reader (PerkinElmer, Waltham, MA). For adhesion assays mediated by α5β1 integrin, 96-well plates were coated by passive adsorption with FN (10 μg/mL) overnight at 4 °C. K562 cells were counted and preincubated with various concentrations of the peptides or with the vehicle (methanol) for 30 min at RT. Afterward, the cells were plated (50 000 cells/well) and incubated at RT for 1 h. The wells were then washed with 1% BSA in PBS (phosphate-buffered saline) to take off nonadherent cells, and 50 μL of hexosaminidase substrate was added; after addition of 100 μL of stopping solution, the plates were read at 405 nm. In both types of adhesion assay, the number of adherent cells was determined by comparison with a standard curve made in the same plate. Experiments were carried out in quadruplicate and repeated at least three times.
(§3) Jurkat E6.1 (expressing α4β1 and αLβ2 integrin), K562 (expressing α5β1 integrin) and HL60 (expressing αMβ2 integrin) cell lines were purchased from ATCC (Rockville, MD, USA); these cells were routinely cultured in RPMI-1640 (Life Technologies) supplemented with glutamine and 10% FBS.
(§4) Cells were grown at 37 °C under 5% CO2 humidified atmosphere.

α4β1 integrin [2] = molecular target: T1, α4β1 integrin; experiment: Jurkat E6.1 cell adhesion to FN; conditions: agonist = adhesion index >1, antagonist = adhesion index <1
Procedure: as §1, §2, §3, §4

α4β7 integrin = molecular target: T2, α4β7 integrin (Homo sapiens, UniProt P13612+P26010); experiment: cell-based; format: cell-based; conditions: for agonist or antagonist behaviour, MAdCAM-1/RPMI8866 α4β7: agonist = adhesion index >1, antagonist = adhesion index <1
T2 construct: RPMI8866 cells expressing α4β7 integrin to the ligand MAdCAM-1; endogenous in cells; host or cells: RPMI8866
T2 sequence (P13612 34-1032): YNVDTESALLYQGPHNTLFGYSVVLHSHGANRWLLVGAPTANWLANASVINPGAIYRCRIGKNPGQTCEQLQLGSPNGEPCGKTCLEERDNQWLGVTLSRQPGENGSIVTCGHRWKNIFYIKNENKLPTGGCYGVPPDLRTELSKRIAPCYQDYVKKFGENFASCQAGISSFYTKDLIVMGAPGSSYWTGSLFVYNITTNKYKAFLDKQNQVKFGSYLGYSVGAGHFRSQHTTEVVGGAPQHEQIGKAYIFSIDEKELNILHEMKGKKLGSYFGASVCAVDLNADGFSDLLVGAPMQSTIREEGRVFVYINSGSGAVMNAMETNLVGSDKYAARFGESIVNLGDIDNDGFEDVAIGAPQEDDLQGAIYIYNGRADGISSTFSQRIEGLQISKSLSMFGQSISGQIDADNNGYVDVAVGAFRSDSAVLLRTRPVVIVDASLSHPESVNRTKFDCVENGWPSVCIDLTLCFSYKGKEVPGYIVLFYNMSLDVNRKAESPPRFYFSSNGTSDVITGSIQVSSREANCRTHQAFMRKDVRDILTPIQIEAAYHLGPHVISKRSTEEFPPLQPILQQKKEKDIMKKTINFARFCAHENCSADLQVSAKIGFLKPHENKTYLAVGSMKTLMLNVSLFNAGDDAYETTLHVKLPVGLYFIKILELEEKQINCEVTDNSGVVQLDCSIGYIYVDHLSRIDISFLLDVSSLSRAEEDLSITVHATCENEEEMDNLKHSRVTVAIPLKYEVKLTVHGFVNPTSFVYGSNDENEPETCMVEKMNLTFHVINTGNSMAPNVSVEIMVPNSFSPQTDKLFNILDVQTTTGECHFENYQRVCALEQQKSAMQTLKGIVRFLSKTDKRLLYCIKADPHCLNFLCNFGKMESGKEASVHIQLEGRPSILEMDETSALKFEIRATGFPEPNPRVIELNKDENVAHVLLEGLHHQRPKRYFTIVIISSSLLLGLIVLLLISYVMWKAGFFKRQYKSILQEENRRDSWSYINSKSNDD
T2 sequence (P26010 20-798): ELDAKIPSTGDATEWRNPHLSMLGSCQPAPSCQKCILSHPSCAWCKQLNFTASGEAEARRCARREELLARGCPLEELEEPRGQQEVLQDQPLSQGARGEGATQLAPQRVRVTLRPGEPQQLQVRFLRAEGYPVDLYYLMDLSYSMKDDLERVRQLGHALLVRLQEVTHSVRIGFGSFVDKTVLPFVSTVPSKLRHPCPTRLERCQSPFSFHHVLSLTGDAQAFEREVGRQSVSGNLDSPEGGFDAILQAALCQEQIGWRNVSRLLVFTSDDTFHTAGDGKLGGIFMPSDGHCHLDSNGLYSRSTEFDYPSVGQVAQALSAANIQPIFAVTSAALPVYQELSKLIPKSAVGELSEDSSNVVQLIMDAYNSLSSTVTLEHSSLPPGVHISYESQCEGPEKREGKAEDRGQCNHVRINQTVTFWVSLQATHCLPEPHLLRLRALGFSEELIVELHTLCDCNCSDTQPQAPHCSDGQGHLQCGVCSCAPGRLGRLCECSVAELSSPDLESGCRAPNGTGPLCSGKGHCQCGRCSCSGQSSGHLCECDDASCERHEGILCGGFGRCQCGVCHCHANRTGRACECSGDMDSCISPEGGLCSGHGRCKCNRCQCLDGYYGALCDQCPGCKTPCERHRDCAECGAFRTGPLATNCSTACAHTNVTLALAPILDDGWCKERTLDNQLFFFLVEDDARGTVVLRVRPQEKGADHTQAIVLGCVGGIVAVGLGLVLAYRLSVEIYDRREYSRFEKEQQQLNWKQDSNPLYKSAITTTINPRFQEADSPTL
Source text: mediated Jurkat cell adhesion to FN.

[3] = system: ERK1/2 phosphorylation mediated by α4β1 integrin; experiment: ERK1/2 phosphorylation in Jurkat E6.1 cells (Western blot); format: cell-based; conditions: compound 10^–7 to 10^–9 M, no FN, vs vehicle
Procedure: Intracellular signaling generated by the interaction of ECM components with α4β1 integrin produces an increase in the phosphorylation of cytoplasmatic second messengers such as ERK1/2 that contribute to α4 integrin-mediated cell functions.
Western blot analysis was performed as previously described, with the following modifications. […] On the other hand, after 1 h incubation with integrin antagonists, the cells were then seeded on FN (10 μg/mL) coated plates for 1 h. Integrin agonists were not incubated with FN. At the end of the incubation time, Jurkat E6.1 cells were lysed on ice using a mammalian protein extraction reagent (M-PER; Pierce, Rockford, IL) supplemented with a phosphatase inhibitor cocktail. Protein extracts were quantified using a BCA protein assay kit (Pierce), separated by 12% SDS-PAGE gel, transferred onto nitrocellulose membranes, and immunoblotted with anti-phospho-ERK1/2 (1:1000) (Cell Signaling Technology, Danvers, MA) or anti-total ERK1/2 antibodies (1:2500) (Cell Signaling Technology). Protocols for digital image acquisition and analysis have been previously described.[73] Densitometric analysis of the bands is reported (mean ± SD; n = 3); the amount of phosphorylated ERK1/2 (pERK1/2) is normalized to that of total ERK1/2 (totERK1/2). Experiments were replicated independently at least three times. Statistical analyses were performed using one-way ANOVA and the post hoc Newman–Keuls test.

αLβ2 integrin = αLβ2 integrin (Homo sapiens, UniProt P05107+P20701); experiment: Jurkat E6.1 cell adhesion to ICAM-1
Chain of αLβ2 integrin (P20701 26-1170): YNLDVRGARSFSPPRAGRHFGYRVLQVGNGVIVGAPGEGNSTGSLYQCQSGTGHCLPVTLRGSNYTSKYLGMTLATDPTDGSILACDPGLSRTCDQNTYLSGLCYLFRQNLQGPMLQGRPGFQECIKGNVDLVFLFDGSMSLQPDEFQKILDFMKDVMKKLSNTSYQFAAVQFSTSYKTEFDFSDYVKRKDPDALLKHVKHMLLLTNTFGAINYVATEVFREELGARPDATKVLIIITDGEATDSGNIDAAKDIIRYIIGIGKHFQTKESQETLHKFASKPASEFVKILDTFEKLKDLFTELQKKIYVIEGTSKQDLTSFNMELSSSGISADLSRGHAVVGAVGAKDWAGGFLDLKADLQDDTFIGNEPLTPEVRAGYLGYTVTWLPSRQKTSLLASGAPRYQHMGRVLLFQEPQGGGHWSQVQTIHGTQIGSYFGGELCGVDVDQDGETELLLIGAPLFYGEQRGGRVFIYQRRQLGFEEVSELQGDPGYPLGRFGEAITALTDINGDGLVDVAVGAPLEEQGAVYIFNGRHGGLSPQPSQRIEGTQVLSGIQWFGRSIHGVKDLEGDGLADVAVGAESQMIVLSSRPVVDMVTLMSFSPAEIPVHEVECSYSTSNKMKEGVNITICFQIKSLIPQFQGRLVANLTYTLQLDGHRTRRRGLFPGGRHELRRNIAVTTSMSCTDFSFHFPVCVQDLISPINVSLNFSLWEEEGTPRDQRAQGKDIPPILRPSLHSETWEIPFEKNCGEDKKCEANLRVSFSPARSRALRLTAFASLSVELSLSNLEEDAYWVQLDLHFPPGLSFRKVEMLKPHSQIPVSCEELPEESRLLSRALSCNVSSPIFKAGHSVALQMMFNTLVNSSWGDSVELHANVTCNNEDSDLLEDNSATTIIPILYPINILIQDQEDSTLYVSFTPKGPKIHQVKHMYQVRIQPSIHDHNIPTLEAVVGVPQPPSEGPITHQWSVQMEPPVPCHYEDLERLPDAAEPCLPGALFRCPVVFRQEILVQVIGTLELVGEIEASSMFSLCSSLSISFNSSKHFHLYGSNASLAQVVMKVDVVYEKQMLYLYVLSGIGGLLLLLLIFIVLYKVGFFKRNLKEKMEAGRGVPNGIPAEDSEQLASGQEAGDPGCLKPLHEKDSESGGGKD
Chain of αLβ2 integrin (P05107 23-769): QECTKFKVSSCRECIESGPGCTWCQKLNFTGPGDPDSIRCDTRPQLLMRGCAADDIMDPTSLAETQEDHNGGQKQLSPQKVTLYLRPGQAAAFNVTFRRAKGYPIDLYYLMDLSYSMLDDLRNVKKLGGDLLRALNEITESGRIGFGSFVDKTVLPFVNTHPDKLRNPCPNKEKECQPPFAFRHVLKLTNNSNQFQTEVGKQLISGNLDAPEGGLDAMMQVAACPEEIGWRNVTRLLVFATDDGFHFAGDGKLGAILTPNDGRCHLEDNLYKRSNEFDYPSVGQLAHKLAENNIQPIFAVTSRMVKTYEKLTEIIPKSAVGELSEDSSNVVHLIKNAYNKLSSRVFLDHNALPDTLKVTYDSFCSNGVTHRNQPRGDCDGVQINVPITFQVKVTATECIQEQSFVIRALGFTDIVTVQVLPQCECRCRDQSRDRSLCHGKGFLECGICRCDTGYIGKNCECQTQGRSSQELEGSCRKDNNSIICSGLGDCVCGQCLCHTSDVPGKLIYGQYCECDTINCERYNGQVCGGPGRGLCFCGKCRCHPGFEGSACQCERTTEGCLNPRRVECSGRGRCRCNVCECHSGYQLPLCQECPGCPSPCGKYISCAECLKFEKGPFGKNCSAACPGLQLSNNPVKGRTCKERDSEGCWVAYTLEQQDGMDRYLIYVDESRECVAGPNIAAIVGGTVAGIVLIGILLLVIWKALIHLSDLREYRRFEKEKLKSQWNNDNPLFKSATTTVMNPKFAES
Procedure: as §1
For adhesion assays on Jurkat E6.1, RPMI8866, or HL60 cells, black 96-well plates were coated overnight at 4 °C with VCAM-1 or ICAM-1 or MAdCAM-1 (5 μg/mL) or Fg (10 μg/mL). The cells were counted, stained with CellTracker green CMFDA (12.5 μM, 30 min at 37 °C, Life Technologies), and after three washes, were preincubated with increasing concentrations of new CPP (10^–10 to 10^–4 M) or with the vehicle (methanol) for 30 min at 37 °C. […] After three washes, adhered cells were lysed with 0.5% Triton X-100 in PBS (30 min at 4 °C) and fluorescence was measured (Ex485 nm/Em535 nm) in an EnSpire Multimode Plate Reader (PerkinElmer, Waltham, MA). […] K562 cells were counted and preincubated with various concentrations of the peptides or with the vehicle (methanol) for 30 min at RT. […] The wells were then washed with 1% BSA in PBS (phosphate-buffered saline) to take off nonadherent cells, and 50 μL of hexosaminidase substrate was added; after addition of 100 μL of stopping solution, the plates were read at 405 nm. […]

[4] = after 2 h, 37 °C, RP HPLC
Procedure: Enzymatic stability tests were carried out in triplicate and repeated three times using mouse serum (Sigma-Aldrich). Peptides was dissolved in Tris buffer pH 7.4 to a 10 mM concentration, and 10 mL aliquots were added to 190 mL of serum. Incubations were maintained at 37 °C, and 20 mL aliquots were sampled from the incubation mixtures at the indicated times of 0, 0.15, 0.5, 1.0, 2.0, and 3.0 h. Samples were diluted with 90 mL of CH3CN, and enzymatic activity was definitively stopped by adding 90 mL of 0.5% AcOH. After centrifugation (13 000g for 20 min), the supernatants were separated and the amount of remaining peptide was assessed by RP HPLC.

α4β1 integrin [5] = system: α4β1 integrin; set-up: method as in PMID 23703610; conditions: low affinity agonist; cited from earlier work

Compound	agonist or antagonist behaviour, VCAM-1/Jurkat E6.1 α4β1 (α4β1 integrin [1])	agonist or antagonist behaviour, FN/Jurkat E6.1 α4β1 (α4β1 integrin [2])	agonist or antagonist behaviour, MAdCAM-1/RPMI8866 α4β7 (α4β7 integrin)	effect on ERK1/2 phosphorylation, compound administered alone [3]	IC50 (α4β7 integrin) [µM]	IC50 (αLβ2 integrin) [µM]	stability in mouse serum [4]	IC50 (α4β1 integrin [5]) [µM]
Cc1ccccc1NC(=O)Nc1ccc(C[C@@H]2NC(=O)C[C@@H](C(=O)O)NC(=O)[C@H](C(C)C)NC(=O)[C@H](CC(=O)O)NC(=O)[C@H](CC(C)C)NC2=O)cc1 [3a, c[(S)-Phu-Leu-Asp-Val-(S)-isoAsp]] ([Phe(4-NH2)]([CO-NH(2-Me-phenyl)])LDVD-OH; lactam N-5 (inferred))	agonist	agonist	agonist	significant concentration-dependent increase of ERK1/2 phosphorylation				
Cc1ccccc1NC(=O)Nc1ccc(C[C@@H]2NC(=O)C[C@@H](C(=O)O)NC(=O)[C@H](C(C)C)NC(=O)[C@H](C)NC(=O)[C@H](CC(C)C)NC2=O)cc1 [12a, c[(S)-Phu-Leu-Ala-Val-(S)-isoAsp]] ([Phe(4-NH2)]([CO-NH(2-Me-phenyl)])LAVD-OH; lactam N-5 (inferred))	agonist	agonist	completely lost activity	significant concentration-dependent increase of ERK1/2 phosphorylation	> 5	> 5		
Cc1ccccc1NC(=O)Nc1ccc(CC(=O)N[C@@H](CC(C)C)C(=O)N[C@@H](CC(=O)O)C(=O)N[C@H](C(=O)N2CCC[C@H]2C(=O)O)C(C)C)cc1 [BIO1211, MPUPA-LDVP-OH] ({NH(2-Me-phenyl)-CO}-[X1]LDVP-OH)			inactive				almost completely hydrolyzed	
CCCC[C@@H](COC(=O)N(Cc1cccs1)Cc1cccs1)NC(=O)N[C@@H](CC(=O)OC)c1ccc2c(c1)OCO2 [THI0019]								1000 to 2000
